Assay results from ChEMBL document CHEMBL4007434, “Indazole-Based Covalent Inhibitors To Target Drug-Resistant Epidermal Growth Factor Receptor” (J Med Chem, 2017).
Calls of active or inactive are those of the source. The calls are words filed in the database; no cut-off is given here.

Tests used:
[1] = Ratio of EC50 for wild-type EGFR in human A431 cells to EC50 for EGFR L858R/T790M double mutant in human NCI-H1975 cells
[2] = test system: Epidermal growth factor receptor (Homo sapiens), P00533 [L858R,T790M,C797S]; assay: Inhibition of EGFR L858R/T790M/C797S triple mutant (unknown origin) by HTRF assay
[3] = target: T1, Epidermal growth factor receptor (Homo sapiens, UniProt P00533, L858R/T790M); assay: (§1) Inhibition of EGF-induced EGFR L858R/T790M double mutant phosphorylation in human NCI-H1975 cells pre-incubated for 1 hr followed by EGF stimulation for 30 mins by Western blot analysis; format: cell-based
[4] = test system: Epidermal growth factor receptor (Homo sapiens), P00533 [L858R,T790M]; assay: as §1; format: cell-based
Liver [5] = assay: Stability in mouse liver microsomes at 3 uM up to 50 mins by LCMS analysis; format: ADME, microsome
[6] = test system: Epidermal growth factor receptor (Homo sapiens), P00533 [L858R]; assay: (§2) Reversible inhibition of human N-terminal GST-tagged EGFR L858R mutant cytoplasmic domain (669 to 1210 end amino acid residues) expressed in baculovirus expression system using TK peptide substrate preincubated for 2 to 90 mins followed by 6-fold dilution
[7] = target: T2, Epidermal growth factor receptor (Homo sapiens, UniProt P00533); assay: Inhibition of wild-type EGFR in human A431 cells assessed as reduction in cell viability after 96 hrs by CellTiterGlo assay; format: ADME, cell-based
[8] = target: T2, Epidermal growth factor receptor; format: ADME
[9] = target: T3, Epidermal growth factor receptor (Homo sapiens, UniProt P00533, L858R)
[10] = target: T1, Epidermal growth factor receptor
[11] = target: T2, Epidermal growth factor receptor; assay: Inhibition of EGF-induced wild-type EGFR phosphorylation in human A431 cells at 10 uM pre-incubated for 1 hr followed by EGF stimulation for 30 mins by Western blot analysis; format: cell-based; conditions: 0.5 h
[12] = Ratio of EC50 for wild-type EGFR in human A431 cells to EC50 for EGFR delE746_A750 mutant in human HCC827 cells
Liver [13] = assay: Stability in human liver microsomes at 3 uM up to 50 mins by LCMS analysis; format: ADME, microsome
[14] = test system: Epidermal growth factor receptor (Homo sapiens), P00533 [T790M]; assay: Binding affinity to EGFR T790M mutant (unknown origin) assessed as covalent adduct formation at 100 uM after 1 hr by ESI-MS analysis
[15] = test system: Epidermal growth factor receptor (Homo sapiens), P00533 [L858R,T790M]; assay: Inhibition of EGFR L858R/T790M double mutant in human NCI-H1975 cells assessed as reduction in EGF-induced Akt phosphorylation at S473 at 0.1 to 10 uM pre-incubated for 1 hr followed by EGF stimulation for 30 mins by Western blot analysis; format: cell-based
[16] = Stability in human plasma assessed as compound remaining at 5 uM after 1 hr by LCMS analysis; format: ADME, cell-free; conditions: read-out: Stability
[17] = Stability in mouse plasma assessed as compound remaining at 5 uM after 1 hr by LCMS analysis; format: ADME, cell-free; conditions: read-out: Stability
[18] = target: T2, Epidermal growth factor receptor; assay: Ratio of Kinact to Ki for reversible inhibition of wild-type human N-terminal GST-tagged EGFR cytoplasmic domain (669 to 1210 end amino acid residues) expressed in baculovirus expression system
[19] = target: T3, Epidermal growth factor receptor; assay: as §2
[20] = test system: Epidermal growth factor receptor (Homo sapiens), P00533 [L858R,T790M]
[21] = Inhibition of KRAS mutant in human A431 cells assessed as reduction in cell viability after 96 hrs by CellTiterGlo assay; format: cell-based; conditions: A-431, 96 h
[22] = Inhibition of KRAS mutant in human H358 cells assessed as reduction in cell viability after 96 hrs by CellTiterGlo assay; format: cell-based; conditions: NCI-H358, 96 h
[23] = target: T2, Epidermal growth factor receptor; assay: Reversible inhibition of wild-type human N-terminal GST-tagged EGFR cytoplasmic domain (669 to 1210 end amino acid residues) expressed in baculovirus expression system using TK peptide substrate assessed as inactivation constant preincubated for 2 to 90 mins followed by 6-fold dilution
[24] = test system: Epidermal growth factor receptor (Homo sapiens), P00533 [L858R]
[25] = target: T2, Epidermal growth factor receptor; assay: Reversible inhibition of wild-type human N-terminal GST-tagged EGFR cytoplasmic domain (669 to 1210 end amino acid residues) expressed in baculovirus expression system using TK peptide substrate preincubated for 2 to 90 mins followed by 6-fold dilution
[26] = target: T1, Epidermal growth factor receptor; assay: Reversible inhibition of human N-terminal GST-tagged EGFR L858R/T790M double mutant cytoplasmic domain (669 to 1210 end amino acid residues) expressed in baculovirus expression system using TK peptide substrate preincubated for 2 to 90 mins followed by 6-fold dilution
[27] = target: T2, Epidermal growth factor receptor; assay: Inhibition of wild-type EGFR in human A431 cells assessed as reduction in EGF-induced Akt phosphorylation at S473 pre-incubated for 1 hr followed by EGF stimulation for 30 mins by Western blot analysis; format: cell-based
[28] = Ratio of IC50 for wild-type human N-terminal GST-tagged EGFR cytoplasmic domain (669 to 1210 end amino acid residues) expressed in baculovirus expression system to IC50 for human N-terminal GST-tagged EGFR L858R/T790M double mutant cytoplasmic domain (669 to 1210 end amino acid residues) expressed in baculovirus expression system
[29] = target: T2, Epidermal growth factor receptor; assay: Inhibition of EGF-induced wild-type EGFR phosphorylation in human A431 cells pre-incubated for 1 hr followed by EGF stimulation for 30 mins by Western blot analysis; format: cell-based
[30] = target: T1, Epidermal growth factor receptor; assay: Inhibition of EGFR L858R/T790M double mutant in human NCI-H1975 cells assessed as reduction in EGF-induced Akt phosphorylation at S473 pre-incubated for 1 hr followed by EGF stimulation for 30 mins by Western blot analysis; format: cell-based

Compound	EC50 [7]	IC50 [8]	IC50 [9]	IC50 [10]	other results
C=CC(=O)Nc1cc(Nc2n[nH]c3ccc(-c4ccc(F)cc4)cc23)c(OC)cc1N(C)CCN(C)C	2070 nM	6.8 nM	2 nM	< 1 nM	Ratio EC50 [1]: 3 - 4; inhibition [2]: inactive; EC50 [3]: 100 to 1000 nM; inhibition [4]: Dose-dependent effect; Stability (Liver [5]): Stable; inhibition [6]: Active; inhibition (INH) [11]: Active; Ratio EC50 [12]: 3 - 4; Stability (Liver [13]): Stable; Activity [14]: Active; inhibition [15]: Active; remaining at 1 h, 5 µM [16]: > 75%; remaining at 1 h, 5 µM [17]: > 90%
C=CC(=O)Nc1cc(Nc2n[nH]c3cc(-c4ccc5ccccc5c4)ccc23)c(OC)cc1N(C)CCN(C)C	1650 nM	312 nM	25 nM	85 nM	
C=CC(=O)Nc1cc(Nc2n[nH]c3cc(-c4cn(C)c5ccccc45)ccc23)c(OC)cc1N(C)CCN(C)C	2210 nM	9.3 nM	1.5 nM	4.8 nM	inhibition [2]: inactive; EC50 [3]: 100 to 1000 nM; inhibition [4]: Dose-dependent effect; kinact/KI [18]: 20000 M⁻¹ s⁻¹; Stability (Liver [5]): Stable; Ki [19]: 57 nM; Kinact [20]: 0.37 min⁻¹; EC50 [21]: 2100 nM; inhibition (INH) [11]: Active; EC50 [22]: 2600 nM; kinact [23]: 0.00467 s⁻¹; Stability (Liver [13]): Stable; Kinact [24]: 0.14 min⁻¹; Activity [14]: Active; inhibition [15]: Active; remaining at 1 h, 5 µM [16]: > 75%; Ki [25]: 236 nM; Ki [26]: 149 nM; remaining at 1 h, 5 µM [17]: > 90%
C=CC(=O)Nc1cc(Nc2n[nH]c3ccc(-c4ccc5ccccc5c4)cc23)c(OC)cc1N(C)CCN(C)C	1770 nM	8.1 nM	2.2 nM	1.1 nM	inhibition [2]: inactive; EC50 [3]: 1000 to 10000 nM; kinact/KI [18]: 20000 M⁻¹ s⁻¹; Stability (Liver [5]): Stable; Ki [19]: 105 nM; Kinact [20]: 0.5 min⁻¹; EC50 [27]: 1000 to 10000 nM; kinact [23]: 0.003 s⁻¹; Stability (Liver [13]): Stable; Kinact [24]: 0.14 min⁻¹; Ratio IC50 [28]: 8; EC50 [29]: 1000 to 10000 nM; Activity [14]: Active; remaining at 1 h, 5 µM [16]: > 75%; Ki [25]: 147 nM; Ki [26]: 28 nM; remaining at 1 h, 5 µM [17]: > 90%; EC50 [30]: 1000 to 10000 nM
C=CC(=O)Nc1cc(Nc2n[nH]c3cc(-c4cccc(N(C)C)c4)ccc23)c(OC)cc1N(C)CCN(C)C	3470 nM	48 nM	10 nM	22 nM	
C=CC(=O)Nc1cc(Nc2n[nH]c3ccc(-c4cccc5ccccc45)cc23)c(OC)cc1N(C)CCN(C)C	2780 nM	33 nM	12 nM	2.7 nM	
C=CC(=O)Nc1cc(Nc2n[nH]c3ccccc23)c(OC)cc1N(C)CCN(C)C	10400 nM	9270 nM	3350 nM	462 nM	
CCC(=O)Nc1cc(Nc2n[nH]c3ccccc23)c(OC)cc1N(C)CCN(C)C	> 30000 nM	> 10000 nM	> 10000 nM	> 10000 nM	
C=CC(=O)Nc1cc(Nc2n[nH]c3cc(-c4ccncc4)ccc23)c(OC)cc1N(C)CCN(C)C	3940 nM	30 nM	14 nM	5 nM	inhibition [2]: inactive; Stability (Liver [5]): Stable; inhibition [6]: Active; Stability (Liver [13]): Stable; Activity [14]: Active; remaining at 1 h, 5 µM [16]: > 75%; remaining at 1 h, 5 µM [17]: > 90%
C=CC(=O)Nc1cc(Nc2n[nH]c3cc(-c4ccc(F)cc4)ccc23)c(OC)cc1N(C)CCN(C)C	2170 nM	26 nM	8.5 nM	10 nM	
C=CC(=O)Nc1cc(Nc2n[nH]c3cc(-c4cccnc4)ccc23)c(OC)cc1N(C)CCN(C)C	5670 nM	97 nM	29 nM	15 nM	
C=CC(=O)Nc1cc(Nc2n[nH]c3cc(-c4cccc(F)c4)ccc23)c(OC)cc1N(C)CCN(C)C	2280 nM	5 nM	1.6 nM	5 nM	
C=CC(=O)Nc1cc(Nc2n[nH]c3ccccc23)ccc1N(C)CCN(C)C	5970 nM	> 10000 nM	> 10000 nM	2630 nM	
CCC(=O)Nc1cc(Nc2n[nH]c3ccccc23)ccc1N(C)CCN(C)C	> 30000 nM	> 10000 nM	8470 nM	9730 nM	
C=CC(=O)Nc1cc(Nc2n[nH]c3cc(-c4ccc(N(C)C)cc4)ccc23)c(OC)cc1N(C)CCN(C)C	1410 nM	387 nM	80 nM	72 nM	
C=CC(=O)Nc1cc(Nc2n[nH]c3cc(-c4cncc5ccccc45)ccc23)c(OC)cc1N(C)CCN(C)C	2820 nM	2.8 nM	1.1 nM	6 nM	EC50 [21]: 659 nM
C=CC(=O)Nc1cc(Nc2n[nH]c3cc(-c4cccc(C(F)(F)F)c4)ccc23)c(OC)cc1N(C)CCN(C)C	3540 nM	16 nM	4.5 nM	38 nM	
